Experimental data from patent US10174016B2 (BAYER AKTIENGESELLSCHAFT, priority 2014, dated 2019).
Like-named read-outs stand apart in the source and are kept apart here.

What was measured:
human P2X3 receptor = human P2X3 receptor (Homo sapiens (Human), UniProt P56373); assay: Intracellular calcium measurement (FLIPR, Fluo-4) of antagonist activity at human P2X3 receptors; type: cell-based; details: read-out: hP2X3 IC50
How it was run: (§1)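 Antagonism quantified from peak calcium fluorescence (Fluo-4, FLIPR, 90 sec read) evoked by EC80 α,β-Me-ATP, after a 30 min, 37° C. compound pretreatment in 1% DMSO. Human P2X3- or P2X2/3-expressing cells used; triplicate means fitted for IC50, percent maximal inhibition and Hill coefficient.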

human P2X2/3 receptor = human P2X2/3 receptor (Homo sapiens (Human), UniProt P56373+Q9UBL9); assay: Intracellular calcium measurement (FLIPR, Fluo-4) of antagonist activity at human P2X2/3 receptors; type: cell-based
Sequence of human P2X2/3 receptor (P56373 whole entry): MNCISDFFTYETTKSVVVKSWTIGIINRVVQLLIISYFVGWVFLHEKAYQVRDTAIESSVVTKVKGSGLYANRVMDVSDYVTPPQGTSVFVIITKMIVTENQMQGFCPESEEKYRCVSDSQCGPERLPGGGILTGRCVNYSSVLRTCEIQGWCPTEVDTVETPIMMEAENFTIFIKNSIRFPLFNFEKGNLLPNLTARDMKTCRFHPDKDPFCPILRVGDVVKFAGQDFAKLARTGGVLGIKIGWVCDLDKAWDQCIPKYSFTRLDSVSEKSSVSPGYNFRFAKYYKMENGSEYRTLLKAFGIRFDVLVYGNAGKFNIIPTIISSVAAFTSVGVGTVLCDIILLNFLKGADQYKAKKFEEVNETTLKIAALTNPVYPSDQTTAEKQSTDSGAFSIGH
Sequence of human P2X2/3 receptor (Q9UBL9 whole entry): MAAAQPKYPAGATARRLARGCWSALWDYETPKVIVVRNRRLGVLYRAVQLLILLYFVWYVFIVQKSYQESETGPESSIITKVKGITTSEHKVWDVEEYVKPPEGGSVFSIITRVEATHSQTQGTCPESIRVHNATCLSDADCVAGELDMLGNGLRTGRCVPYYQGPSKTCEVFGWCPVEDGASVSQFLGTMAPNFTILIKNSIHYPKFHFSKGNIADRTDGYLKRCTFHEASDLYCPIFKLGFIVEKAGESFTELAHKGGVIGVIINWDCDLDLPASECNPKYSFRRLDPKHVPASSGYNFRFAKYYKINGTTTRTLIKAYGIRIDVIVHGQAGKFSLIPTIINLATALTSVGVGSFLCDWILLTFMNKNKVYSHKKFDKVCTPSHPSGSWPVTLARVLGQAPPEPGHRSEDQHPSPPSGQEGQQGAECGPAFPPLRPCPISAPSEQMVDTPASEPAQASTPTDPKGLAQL
How it was run: as §1

[1] = human P2X3, FLIPR calcium assay, agonist α,β-Me-ATP
[2] = human P2X2/3, FLIPR calcium assay, agonist α,β-Me-ATP, read-out: hP2X2/3 IC50

Sequence of human P2X3 receptor (P56373 whole entry): as the sequence (P56373 whole entry) above

Row | IC50 (human P2X3 receptor; [1]) [nM] | IC50 (human P2X2/3 receptor; [2]) [nM] | SMILES | IC50 (human P2X3 receptor) [nM] | IC50 (human P2X2/3 receptor; hP2X2/3 IC50 (nM)) [nM]
1 | 14 | 104 | C[C@@H](NC(=O)c1cc(OCC2CCOCC2)cc(-c2ncc(C3CCC3)s2)c1)c1cnc(C(F)(F)F)nc1 [Example 120, 3-(5-Cyclobutyl-1,3-thiazol-2-yl)-5-(tetrahydro-2H-pyran-4-ylmethoxy)-N-{(1R)-1-[2-(trifluoromethyl)pyrimidin-5-yl]ethyl}benzamide] | – | –
2 | 8 | 160 | Cc1ncc([C@@H](C)NC(=O)c2cc(OC3CCN(CC(F)(F)F)CC3)cc(-c3ncc(C)s3)c2)cn1 [Example 315, N-[(1R)-1-(2-methylpyrimidin-5-yl)ethyl]-3-(5-methyl-1,3-thiazol-2-yl)-5-{[1-(2,2,2-trifluoroethyl)piperidin-4-yl]oxy}benzamide] | – | –
3 | – | – | Cc1cnc(-c2cc(O[C@@H]3CN4CCC3CC4)cc(C(=O)N[C@H](C)c3cnc(C(F)(F)F)nc3)c2)s1 [Example 192, 3-[(3S)-1-azabicyclo[2.2.2]oct-3-yloxy]-5-(5-methyl-1,3-thiazol-2-yl)-N-{(1R)-1-[2-(trifluoromethyl)pyrimidin-5-yl]ethyl} benzamide] | 12 | 910
4 | 12 | 1010 | Cc1cnc(-c2cc(OC3CCN(C)CC3)cc(C(=O)N[C@H](C)c3ccc(C(F)(F)F)nn3)c2)s1 [Example 210, 3-[(1-methylpiperidin-4-yl)oxy]-5-(5-methyl-1,3-thiazol-2-yl)-N-{(1R)-1-[6-(trifluoromethyl)pyridazin-3-yl]ethyl} benzamide] | – | –
5 | 31 | 333 | Cc1cnc(-c2cc(O[C@H]3CCOC3)cc(C(=O)N[C@H](C)c3cnc(C(F)F)nc3)c2)s1 [Example 151, N-{(1R)-1-[2-(difluoromethyl)pyrimidin-5-yl]ethyl}-3-(5-methyl-1,3-thiazol-2-yl)-5-[(3S)-tetrahydrofuran-3-yloxy]benzamide] | – | –
6 | 26 | 573 | Cc1cnc(-c2cc(O[C@@H]3CCOC3)cc(C(=O)N[C@H](C)c3ccc(C(F)F)nc3)c2)s1 [Example 171, N-{(1R)-1-[6-(difluoromethyl)pyridin-3-yl]ethyl}-3-(5-methyl-1,3-thiazol-2-yl)-5-[(3R)-tetrahydrofuran-3-yloxy]benzamide] | – | –
7 | 21 | 1100 | Cc1cnc(-c2cc(O[C@@H]3CCOC3)cc(C(=O)NC(C)c3ncc(F)cc3Cl)c2)s1 (stereo partly drawn) [Example 13, N-[1-(3-chloro-5-fluoropyridin-2-yl)ethyl]-3-(5-methyl-1,3-thiazol-2-yl)-5-[(3R)-tetrahydrofuran-3-yloxy]benzamide] | – | –
8 | 30 | 1310 | Cc1cnc(-c2cc(OC[C@H]3COCC(=O)N3C)cc(C(=O)N[C@H](C)c3cnc(C(F)(F)F)nc3)c2)s1 [Example 395, 3-{[(3R)-4-methyl-5-oxomorpholin-3-yl]methoxyl}-5-(5-methyl-1,3-thiazol-2-yl)-N-{(1R)-1-[2-(trifluoromethyl)pyrimidin-5-yl]ethyl}benzamide] | – | –
9 | 44 | 1620 | Cc1cnc([C@@H](C)NC(=O)c2cc(OC[C@H]3CCOC3)cc(-c3ncc(C)s3)c2)cn1 [Example 68, N-[(1R)-1-(5-Methylpyrazin-2-yl)ethyl]-3-(5-methyl-1,3-thiazol-2-yl)-5-[(3S)-tetrahydrofuran-3-ylmethoxy]benzamide] | – | –
10 | 114 | 1450 | Cc1ccc([C@@H](C)NC(=O)c2cc(Oc3nnc(C)s3)cc(-c3ncc(C)s3)c2)nn1 [Example 110, N-[(1R)-1-(6-Methylpyridazin-3-yl)ethyl]-3-[(5-methyl-1,3,4-thiadiazol-2-yl)oxy]-5-(5-methyl-1,3-thiazol-2-yl)benzamide] | – | –

Row | SMILES | IC50 (human P2X3 receptor; [1]) [nM] | IC50 (human P2X2/3 receptor; [2]) [nM] | IC50 (human P2X3 receptor) [nM] | IC50 (human P2X2/3 receptor; hP2X2/3 IC50 (nM)) [nM]
11 | CCc1cnc(-c2cc(OC[C@@H]3CCCO3)cc(C(=O)N[C@H](C)c3cnc(C)cn3)c2)s1 [Example 283, 3-(5-ethyl-1,3-thiazol-2-yl)-N-[(1R)-1-(5-methylpyrazin-2-yl)ethyl]-5-[(2S)-tetrahydrofuran-2-ylmethoxy]benzamide] | – | 379 | 10 | –
